Source: ChEMBL document CHEMBL1909046, “DrugMatrix in vitro pharmacology data”

Tests used:
[1] = DRUGMATRIX: Sodium/nucleoside co-transporter radioligand binding (ligand: nitrobenzylthioinosine); type: cell membranes, Cavia porcellus, Dunkin-Hartley, Cerebral cortex, Membrane; conditions: Not Active = under 50% inhibition at 10 µM
[2] = biological target: T1, Alpha-1B adrenergic receptor (Rattus norvegicus, UniProt P15823); assay: DRUGMATRIX: Alpha-1B adrenergic receptor radioligand binding (ligand: prazosin); type: cell membranes, Wistar, Liver, Membrane; conditions: Not Active = under 50% inhibition at 10 µM
T1 sequence (P15823 whole entry): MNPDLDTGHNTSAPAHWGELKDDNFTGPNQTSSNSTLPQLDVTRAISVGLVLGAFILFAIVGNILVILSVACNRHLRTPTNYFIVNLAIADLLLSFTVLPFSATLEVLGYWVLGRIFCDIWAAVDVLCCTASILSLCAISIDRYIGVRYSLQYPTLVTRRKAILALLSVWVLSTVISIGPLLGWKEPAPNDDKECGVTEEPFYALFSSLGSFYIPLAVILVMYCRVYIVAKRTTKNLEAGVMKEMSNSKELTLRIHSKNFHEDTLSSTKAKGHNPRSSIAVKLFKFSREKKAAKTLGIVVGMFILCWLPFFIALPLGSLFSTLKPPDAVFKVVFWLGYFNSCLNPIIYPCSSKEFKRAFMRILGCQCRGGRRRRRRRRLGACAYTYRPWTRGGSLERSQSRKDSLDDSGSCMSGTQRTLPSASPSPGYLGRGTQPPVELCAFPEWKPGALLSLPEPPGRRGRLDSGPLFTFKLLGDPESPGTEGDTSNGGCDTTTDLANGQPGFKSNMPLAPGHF

[3] = biological target: Aldo-keto reductase family 1 member B1 (Rattus norvegicus, UniProt P07943); assay: biochemical; type: tissue-based, Lens of camera-type eye;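 further: inhibition of aldose reductase enzyme activity, measured with DL-glyceraldehyde as the substrate; in other assays of this panel Not Active means under 50% inhibition at 10 µM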
[4] = biological target: T2, C-X-C chemokine receptor type 1 (Homo sapiens, UniProt P25024); further: in other assays of this panel Not Active means under 50% inhibition at 10 µM
T2 sequence (P25024 whole entry): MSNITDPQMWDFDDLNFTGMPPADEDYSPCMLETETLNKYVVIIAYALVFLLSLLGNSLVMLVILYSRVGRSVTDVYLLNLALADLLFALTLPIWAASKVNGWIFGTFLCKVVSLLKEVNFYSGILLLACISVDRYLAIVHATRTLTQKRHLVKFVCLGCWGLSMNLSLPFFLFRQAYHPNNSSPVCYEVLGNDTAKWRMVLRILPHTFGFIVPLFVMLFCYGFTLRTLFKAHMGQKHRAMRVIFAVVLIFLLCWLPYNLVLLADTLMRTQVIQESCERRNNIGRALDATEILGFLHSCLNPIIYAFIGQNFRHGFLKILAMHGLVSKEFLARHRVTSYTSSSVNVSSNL

[5] = biological target: T3, Cysteinyl leukotriene receptor 1 (Homo sapiens, UniProt Q9Y271); type: cell membranes, Membrane; conditions: cho-k1; further: in other assays of this panel Not Active means under 50% inhibition at 10 µM
T3 sequence (Q9Y271 whole entry): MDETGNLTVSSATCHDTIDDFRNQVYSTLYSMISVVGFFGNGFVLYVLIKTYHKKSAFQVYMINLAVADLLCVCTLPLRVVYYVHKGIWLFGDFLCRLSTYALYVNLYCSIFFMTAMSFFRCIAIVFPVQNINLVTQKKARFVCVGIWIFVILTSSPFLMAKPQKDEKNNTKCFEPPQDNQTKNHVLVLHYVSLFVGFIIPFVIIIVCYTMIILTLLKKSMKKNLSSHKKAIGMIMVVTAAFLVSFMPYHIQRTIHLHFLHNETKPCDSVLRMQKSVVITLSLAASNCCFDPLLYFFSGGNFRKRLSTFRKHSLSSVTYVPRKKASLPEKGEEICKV

[6] = biological target: T4, Muscarinic acetylcholine receptor M4 (Homo sapiens, UniProt P08173); type: cell membranes, CHO-K1, Membrane; further: in other assays of this panel Not Active means under 50% inhibition at 10 µM
T4 sequence (P08173 whole entry): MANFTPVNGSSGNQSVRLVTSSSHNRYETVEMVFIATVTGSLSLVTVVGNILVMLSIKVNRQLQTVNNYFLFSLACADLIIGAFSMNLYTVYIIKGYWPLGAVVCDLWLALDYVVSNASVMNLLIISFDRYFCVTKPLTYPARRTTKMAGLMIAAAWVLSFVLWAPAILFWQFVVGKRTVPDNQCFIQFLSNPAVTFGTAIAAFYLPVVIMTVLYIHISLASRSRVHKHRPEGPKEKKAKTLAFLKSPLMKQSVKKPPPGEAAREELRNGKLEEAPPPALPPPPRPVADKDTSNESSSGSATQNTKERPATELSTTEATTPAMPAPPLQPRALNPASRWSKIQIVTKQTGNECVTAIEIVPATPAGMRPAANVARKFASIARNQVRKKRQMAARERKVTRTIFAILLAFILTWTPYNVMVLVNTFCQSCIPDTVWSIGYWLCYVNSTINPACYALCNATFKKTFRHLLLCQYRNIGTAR

[7] = biological target: T5, Estrogen receptor (Homo sapiens, UniProt P03372); conditions: sf9; further: in other assays of this panel Not Active means under 50% inhibition at 10 µM
T5 sequence (P03372 whole entry): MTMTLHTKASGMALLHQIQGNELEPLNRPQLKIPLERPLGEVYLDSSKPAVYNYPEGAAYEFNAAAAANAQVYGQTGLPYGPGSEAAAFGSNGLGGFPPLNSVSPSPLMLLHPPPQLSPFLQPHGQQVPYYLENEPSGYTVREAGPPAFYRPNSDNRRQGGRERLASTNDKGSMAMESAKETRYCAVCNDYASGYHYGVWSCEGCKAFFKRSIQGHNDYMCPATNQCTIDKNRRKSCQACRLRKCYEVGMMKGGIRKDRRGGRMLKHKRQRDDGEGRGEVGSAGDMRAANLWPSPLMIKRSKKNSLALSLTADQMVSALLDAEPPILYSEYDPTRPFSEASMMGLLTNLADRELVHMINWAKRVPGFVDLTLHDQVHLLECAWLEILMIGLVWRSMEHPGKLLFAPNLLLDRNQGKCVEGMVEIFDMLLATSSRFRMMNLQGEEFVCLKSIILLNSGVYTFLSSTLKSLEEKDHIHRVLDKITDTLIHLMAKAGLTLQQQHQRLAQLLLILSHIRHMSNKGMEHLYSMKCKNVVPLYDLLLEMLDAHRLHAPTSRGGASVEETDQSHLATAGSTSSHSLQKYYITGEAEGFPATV

Compound	IC50 [1]	Ki [1]	IC50 [2]	IC50 [3]	IC50 [4]	IC50 [5]	IC50 ([6]; cho-k1)	IC50 [7]	IC50 ([2]; read-out: IC50) [nM]	Ki ([2]; read-out: Ki) [nM]	IC50 ([6]; read-out: IC50) [nM]	Ki ([6]; read-out: Ki) [nM]	IC50 ([3]; read-out: IC50) [nM]	Ki [2]	Ki [3]	Ki [4]	Ki [5]	Ki ([6]; cho-k1)	Ki [7]
COc1ccnc(C[S+]([O-])c2nc3ccc(OC(F)F)cc3[nH]2)c1OC (stereo not given) [PANTOPRAZOLE]	Not Active	Not Active	Not Active	Not Active	Not Active	Not Active	Not Active	Not Active											
N=C(N)c1ccc(OCCCCCOc2ccc(C(=N)N)cc2)cc1 [PENTAMIDINE]	Not Active	Not Active		Not Active	Not Active	Not Active		Not Active	967	535	1580	220							
NNCCc1ccccc1 [PHENELZINE]	Not Active	Not Active	Not Active	Not Active	Not Active	Not Active	Not Active	Not Active											
CCc1ccc(CCOc2ccc(CC3SC(=O)NC3=O)cc2)nc1 (stereo not given) [PIOGLITAZONE]	Not Active	Not Active	Not Active		Not Active	Not Active	Not Active	Not Active					13200						
CCCNC(C)C(=O)Nc1ccccc1C (stereo not given) [PRILOCAINE]	Not Active	Not Active	Not Active	Not Active	Not Active	Not Active	Not Active	Not Active											
CCN(CC)CCCC(C)Nc1c2ccc(Cl)cc2nc2ccc(OC)cc12 (stereo not given) [QUINACRINE]	Not Active	Not Active		Not Active	Not Active	Not Active		Not Active	3410	1890	1980	277							
C[C@]12C=CC(=O)C=C1CC[C@H]1[C@@H]3C[C@@H](O)[C@](O)(C(=O)CO)[C@@]3(C)C[C@H](O)[C@@]12F [TRIAMCINOLONE]	Not Active	Not Active	Not Active	Not Active	Not Active	Not Active	Not Active	Not Active											
CC[C@]1(O)C[C@@H]2CN(CCc3c([nH]c4ccccc34)[C@@](C(=O)OC)(c3cc4c(cc3OC)N(C)[C@H]3[C@@](O)(C(N)=O)[C@H](O)[C@]5(CC)C=CCN6CC[C@]43[C@@H]65)C2)C1 [VINDESINE]	Not Active	Not Active	Not Active	Not Active	Not Active	Not Active	Not Active	Not Active											
CCN(C(C)=O)c1cccc(-c2ccnc3c(C#N)cnn23)c1 [ZALEPLON]	Not Active	Not Active	Not Active	Not Active	Not Active	Not Active	Not Active	Not Active											
COBALTOUS CHLORIDE	Not Active	Not Active	Not Active	Not Active	Not Active	Not Active	Not Active	Not Active						Not Active	Not Active	Not Active	Not Active	Not Active	Not Active
